Source: US7399744B2, “Methods for affecting body composition” (Amylin Pharmaceuticals, Inc., priority 2004, dated 2008)
Marks after values point to notes of the source that are not given here.

Assay: Amylin or sibutramine by 28-day osmotic pump in high fat-fed rats (Example 1)
Format: in vivo, rat
Conditions: amylin 300 μg/kg/day or sibutramine 3 mg/kg/day, s.c. 28-day osmotic pump, high fat-fed rats, vs high fat-fed controls
Experimental: Low fat-fed rats (11% kcal from fat, D12329, Research Diets) were also implanted with pumps delivering vehicle. Food intake and body weight measurements were obtained weekly.
Rats were sacrificed by cardiac puncture under anesthesia. Triglyceride levels were measured on a COBAS Mira plasma analyzer (Roche), and leptin and insulin were assayed according to Linco Research rat RIA kits. Body composition was measured by chemical analysis (Covance Laboratories, Madison, Wis.).
All data are represented as mean±SEM. Analysis of variance was used to test for group differences.
The rats were fattened for 10 weeks prior to drug treatment. The high fat-fed rats were designated as obesity-prone (top 50% of weight gainers) or obesity-resistant (bottom 50%) based on the amount of weight gained through week 7.
In this study, an obesity-prone/obesity-resistant difference in drug interaction was found for protein weight in amylin-treated rats, and thus body composition parameters were measured separately in obesity-prone and obesity-resistant animals in each drug group (FIGS. 2A and 2B).

SMILES: CC(C)CC(N(C)C)C1(c2ccc(Cl)cc2)CCC1 (centres unmarked) [SIBUTRAMINE, sibutramine, reference compound]
- Body Weight (Week 1): 6%*
- Caloric Intake (Week 1): 45%*
- Body Weight (Week 2): 6%*
- Caloric Intake (Week 2): 8%*
- Body Weight (Week 3): 6%*
- Caloric Intake (Week 3): −1%
- Body Weight (Week 4): 3%
- Caloric Intake (Week 4): −3%
